Data taken from US11147884B2, “Inhibitors of NHE-mediated antiport” (Ardelyx, Inc., priority 2017, dated 2021).

Columns and labels:
[1] = tested on: human ileum stem cells grown as monolayers; assay: Intracellular pH (BCECF-AM) in human ileum monolayers; type: cell-based; conditions: human ileum monolayer
[2] = tested on: human ileum monolayer culture; assay: Transepithelial electrical resistance (TEER) in human ileum organoid monolayer cultures; type: cell-based; conditions: for TEER compared with control: 3 μM, vs DMSO (FIG. 1D)
Procedure: Each human ileum monolayer culture well was washed twice with fresh SBM on the apical side on day 6 before compound dosing. All compound stocks were 10 mM dissolved in DMSO. Each compound stock was individually mixed with fresh SBM to reach final compound concentration and dosed only on the apical side of the monolayer (total volume 200 μl). DMSO at the equivalent concentration was used as the vehicle control. Duplicate wells were dosed for each compound. Transepithelial electrical resistance (TEER) was used as a quantitative technique to measure of tight junction permeability. TEER values were recorded using a volt/ohm meter (MERS00002, Millipore) before and after dosing for all wells. Each of the duplicate TEER values following treatment were corrected for the individual well baseline TEER. Baseline corrected TEER for each example compound was compared to the average of the DMSO wells and expressed as a percent TEER of vehicle control. Intracellular pH was measured in human ileum stem cells grown as monolayers on 96 well Transwell plates cells incubated with 10 μM of pH sensitive dye BCECF-AM (Life Technologies, cat# B1150) for 30 min at 37° C., 5% CO2 in Na-containing buffer (120 mM NaCl, 10 mM HEPES, 10 mM glucose, 5 mM KCl, 2 mM CaCl2, 1 mM MgCl2, pH 7.4). After 30 min the dye was aspirated and cells were washed twice with Na-containing buffer.
Fluorescent readings were acquired every 5 minutes for a period of 30 minutes on a Flexstation microplate reader at dual excitation wavelengths of 495 nm and 439 nm and emission wavelength of 538 nm (Molecular Devices). The fluorescent ratio for pH indication was calculated from ratio of the two excitation wavelengths (495/439 nm).

NHE3 = target: T1, NHE3 (Homo sapiens, UniProt P48764); assay: NHE3 activity in enterocytes by intracellular pH recovery following acid loading; type: cell-based
T1 construct: the increase in NHE3 expression after differentiation; endogenous in cells; host or cells: enterocytes (differentiated human ileum organoid monolayer cultures)
T1 sequence (P48764 26-834): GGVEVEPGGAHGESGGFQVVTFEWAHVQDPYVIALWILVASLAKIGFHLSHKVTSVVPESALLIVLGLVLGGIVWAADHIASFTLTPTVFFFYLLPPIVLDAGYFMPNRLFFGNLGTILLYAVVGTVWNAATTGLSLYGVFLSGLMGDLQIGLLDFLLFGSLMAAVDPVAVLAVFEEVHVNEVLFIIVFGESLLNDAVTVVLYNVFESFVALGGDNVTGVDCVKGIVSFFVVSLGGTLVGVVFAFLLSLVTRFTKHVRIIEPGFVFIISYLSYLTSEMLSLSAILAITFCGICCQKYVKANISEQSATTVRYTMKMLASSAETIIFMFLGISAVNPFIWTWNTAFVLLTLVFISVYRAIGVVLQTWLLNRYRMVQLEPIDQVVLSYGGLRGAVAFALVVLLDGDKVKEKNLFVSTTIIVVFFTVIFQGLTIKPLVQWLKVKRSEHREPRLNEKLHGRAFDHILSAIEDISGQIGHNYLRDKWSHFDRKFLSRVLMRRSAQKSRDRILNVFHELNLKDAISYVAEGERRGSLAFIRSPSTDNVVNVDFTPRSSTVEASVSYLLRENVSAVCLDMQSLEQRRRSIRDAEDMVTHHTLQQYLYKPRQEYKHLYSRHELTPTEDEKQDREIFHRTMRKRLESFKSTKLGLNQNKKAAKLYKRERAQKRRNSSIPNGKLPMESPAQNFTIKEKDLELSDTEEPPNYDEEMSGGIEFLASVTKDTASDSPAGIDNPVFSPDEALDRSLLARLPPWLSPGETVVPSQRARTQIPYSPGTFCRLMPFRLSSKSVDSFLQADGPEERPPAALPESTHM
Procedure: Known NHE3 inhibitor Tenapanor, as well as non NHE3 inhibitors nigericin, BAM15, FCCP, or DMSO control, were diluted into Na-containing buffer and added to the apical compartment of the Transwell. Fluorescent readings were acquired every 5 minutes for a period of 30 minutes on a Flexstation microplate reader at dual excitation wavelengths of 495 nm and 439 nm and emission wavelength of 538 nm (Molecular Devices). The fluorescent ratio for pH indication was calculated from ratio of the two excitation wavelengths (495/439 nm).

human NHE3 [3] = target: T2, human NHE3 (Homo sapiens, UniProt P48764); assay: Cell-based assay of NHE-3 activity (pre-incubation inhibition), human; conditions: human Preincuba assay; PS120 fibroblasts expressing human NHE3 and NHERF2
T2 construct: host or cells: PS120 fibroblasts
T2 sequence (P48764 26-834): T1 sequence (P48764 26-834)
T2 sequence (Q99653 2-195 partner limits assumed): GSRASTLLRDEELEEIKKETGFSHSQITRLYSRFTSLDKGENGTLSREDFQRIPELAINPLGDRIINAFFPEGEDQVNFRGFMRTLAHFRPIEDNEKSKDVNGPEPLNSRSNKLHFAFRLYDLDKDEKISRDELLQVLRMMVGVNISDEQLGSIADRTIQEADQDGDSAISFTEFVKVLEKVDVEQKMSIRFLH
Procedure: Rat and human NHE-3-mediated Na^+-dependent H^+ antiport was measured using a modification of the pH sensitive dye method originally reported by Paradiso (Proc. Natl. Acad. Sci. USA. (1984) 81(23): 7436-7440). PS120 fibroblasts stably expressing human NHE3 and NHERF2 were obtained from Mark Donowitz (Baltimore, Md.). Opossum kidney (OK) cells were obtained from the ATCC and propagated per their instructions. The rat NHE-3 gene (GenBank M85300) was introduced into OK cells via electroporation, and cells were seeded into 96 well plates and grown overnight. Medium was aspirated from the wells then incubated for 30 min at 37° C. with NH4Cl-HEPES buffer (20 mM […], 80 mM NaCl, 50 mM HEPES, 5 mM KCl, 2 mM CaCl2, 1 mM MgCl2, pH 7.4) containing 5 μM BCECF-AM. Cells were washed once with Ammonium free, Na^t-free HEPES (100 mM choline, 50 mM HEPES, 10 mM glucose, 5 mM KCl, 2 mM CaCl2), 1 mM MgCl2, pH 7.4) and incubated in the same buffer for 10 minutes at room temperature to lower intracellular pH with 0-30 μM test compound. […] Changes in intracellular pH were monitored using a FLIPR Tetra®® (Molecular Devices, Sunnyvale, Calif.) by excitation at λex 439 to 505 nm, and measuring BCECF fluorescence at λem 538 nm. The initial rate of the fluorescence ratio change was used as a measure of NHE-mediated Na^+/H^+ activity, and reported as the change in fluorescence ratio per minute.

human NHE3 [4] = target: T2, human NHE3; assay: Cell-based assay of NHE-3 activity (persistent inhibition after washout), human; conditions: human Persistence assay; after 60 min incubation and washout
Procedure: The ability of compounds to inhibit human and rat NHE-3-mediated Na^+-dependent H^+ antiport after application and washout was measured using a modification of the pH sensitive dye method described above. PS120 fibroblasts stably expressing human NHE3 and NHERF2 were obtained from Mark Donowitz (Baltimore, Md.). Opossum kidney (OK) cells were obtained from the ATCC and propagated per their instructions. The rat NHE-3 gene was introduced into OK cells via electroporation, and cells were seeded into 96 well plates and grown overnight. Medium was aspirated from the wells, cells were washed once with NaCl-HEPES buffer (100 mM NaCl, 50 mM HEPES, 10 mM glucose, 5 mM KCl, 2 mM CaCl2, 1 mM MgCl2, pH 7.4), then overlayed with NaCl-HEPES buffer containing 0-30 μM test compound. After a 60 min incubation at room temperature, the test drug containing buffer was aspirated from the cells. Following aspiration, cells were washed once with NaCl-HEPES buffer without drug, then incubated for 30 min at 37° C. with NH4Cl-HEPES buffer (20 mM NH4Cl, 80 mM NaCl, 50 mM HEPES. 5 mM KCl, 2 mM CaCl2), 1 mM MgCl2, pH 7.4) containing 5 μM BCECF-AM. Cells were washed once with Ammonium free, Na^+-free HEPES (100 mM choline, 50 mM HEPES, 10 mM glucose. 5 mM KCl, 2 mM CaCl2), 1 mM MgCl2, pH 7.4) and incubated in the same buffer for 10 minutes at room temperature to lower intracellular pH. NHE-3-mediated recovery of neutral intracellular pH was initiated (10 min after compound washout) by addition of Na-HEPES buffer. […] Changes in intracellular pH were monitored using a FLIPR Tetra® (Molecular Devices, Sunnyvale, Calif.) by excitation at λex 439 to 505 nm, and measuring BCECF fluorescence at λem 538 nm. The initial rate of the fluorescence ratio change was used as a measure of NHE-mediated Na^+/H^+ activity, and reported as the change in fluorescence ratio per minute.

Compound | intracellular pH compared with control ([1]; 3 μM, vs DMSO (FIG. 1C)) | TEER compared with control [2] | inhibition of NHE3 activity in enterocytes (NHE3) | intracellular pH compared with control ([1]; apical dosing, vs DMSO (FIG. 1A)) | % inhibition (human NHE3 [3]) | IC50 (human NHE3 [3]) [nM] | % inhibition (human NHE3 [4]) | IC50 (human NHE3 [4]) [nM] | TEER relative to control ([2]; apical dosing, vs DMSO (FIG. 1B))
FCCP | decrease intracellular pH | increased TEER compared with control | – | – | – | – | – | – | –
CO[C@@H]1C[C@@H](C[C@H]2CC[C@H](C)[C@H]([C@@H](C)C(=O)O)O2)O[C@]2(O[C@](C)([C@H]3CC[C@@](C)([C@@H]4O[C@@H]([C@H]5O[C@@](O)(CO)[C@H](C)C[C@@H]5C)C[C@@H]4C)O3)C[C@H]2C)[C@@H]1C [nigericin] | – | – | neither nigericin, BAM15 nor FCCP inhibited NHE3 activity | reduced intracellular pH compared with control | – | – | – | – | –
CN1Cc2c(Cl)cc(Cl)cc2[C@H](c2cccc(S(=O)(=O)N3CC[C@H](OCCOCCNC(=O)NCCCCNC(=O)NCCOCCO[C@H]4CCN(S(=O)(=O)c5cccc([C@@H]6CN(C)Cc7c(Cl)cc(Cl)cc76)c5)C4)C3)c2)C1 [Example 50] | – | – | – | – | C (>70%) | < 100 | C (>70%) | 100 to 1000 | –
CC(C)[C@H](COCCOCCNC(=O)NCCCCNC(=O)NCCOCCOC[C@H](NS(=O)(=O)c1cccc([C@@H]2CN(C)Cc3c(Cl)cc(Cl)cc32)c1)C(C)C)NS(=O)(=O)c1cccc([C@@H]2CN(C)Cc3c(Cl)cc(Cl)cc32)c1 [Example 51] | – | – | – | – | A (NHE3 <40%) | > 1000 | A (NHE3 <40%) | > 1000 | –
CN1Cc2c(Cl)cc(Cl)cc2[C@H](c2cccc(S(=O)(=O)NC(C)(C)COCCOCCNC(=O)NCCCCNC(=O)NCCOCCOCC(C)(C)NS(=O)(=O)c3cccc([C@@H]4CN(C)Cc5c(Cl)cc(Cl)cc54)c3)c2)C1 [Example 47, 3-(2-[2-[2-([3-[(4S)-6,8-dichloro-2-methyl-1,2,3,4-tetrahydroisoquinolin-4-yl]benzene]sulfonamido)-2-methylpropoxy]ethoxy]ethyl)-1-(4-[[(2-[2-[2-([3-[(4S)-6,8-dichloro-2-methyl-1,2,3,4-tetrahydroisoquinolin-4-yl]benzene]sulfonamido)-2-methylpropoxy]ethoxy]ethyl)carbamoyl]amino]butyl)urea] | – | – | – | – | C (>70%) | < 100 | C (>70%) | 100 to 1000 | –
CN1Cc2c(Cl)cc(Cl)cc2[C@H](c2cccc(S(=O)(=O)N3CCC(OCCOCCNC(=O)NCCCCNC(=O)NCCOCCOC4CCN(S(=O)(=O)c5cccc([C@@H]6CN(C)Cc7c(Cl)cc(Cl)cc76)c5)CC4)CC3)c2)C1 [Example 48] | – | – | – | – | C (>70%) | < 100 | C (>70%) | 100 to 1000 | –
Fc1ccccc1Nc1nc2nonc2nc1Nc1ccccc1F [BAM15] | decrease intracellular pH | increased TEER compared with control | neither nigericin, BAM15 nor FCCP inhibited NHE3 activity | – | – | – | – | – | –
CN1Cc2c(Cl)cc(Cl)cc2C(c2cccc(S(=O)(=O)N[C@@H]3CCN(CCOCCNC(=O)NCCCCNC(=O)NCCOCCN4CC[C@@H](NS(=O)(=O)c5cccc(C6CN(C)Cc7c(Cl)cc(Cl)cc76)c5)C4)C3)c2)C1 (stereo partly drawn) [Example 24, N,N′-[(3R,3′R)-(7,14-Dioxo-3,18-dioxa-6,8,13,15-tetraazaicosane-1,20-diyl)bis(pyrrolidine-1,3-diyl)]bis[3-(6,8-dichloro-2-methyl-1,2,3,4-tetrahydroisoquinolin-4-yl)benzenesulfonamide]] | – | – | – | – | C (>70%) | < 100 | C (>70%) | < 100 | –
CN1Cc2c(Cl)cc(Cl)cc2[C@H](c2cccc(S(=O)(=O)NCCOCCOCCNC(=O)NCCCCNC(=O)NCCOCCOCCNS(=O)(=O)c3cccc([C@@H]4CN(C)Cc5c(Cl)cc(Cl)cc54)c3)c2)C1 [tenapanor] | – | – | – | – | – | – | – | – | increase in TEER relative to control
CN1Cc2c(Cl)cc(Cl)cc2[C@H](c2cccc(S(=O)(=O)N3CC[C@@H](OCCOCCNC(=O)NCCCCNC(=O)NCCOCCO[C@@H]4CCN(S(=O)(=O)c5cccc([C@@H]6CN(C)Cc7c(Cl)cc(Cl)cc76)c5)C4)C3)c2)C1 [Example 49, 1-(2-(2-(((R)-1-((3-((S)-6,8-dichloro-2-methyl-1,2,3,4-tetrahydroisoquinolin-4-yl)phenyl)sulfonyl)pyrrolidin-3-yl)oxy)ethoxy)ethyl)-3-(4-(3-(2-(2-(((R)-1-((3-((S)-6,8-dichloro-2-methyl-1,2,3,4-tetrahydroisoquinolin-4-yl)phenyl)sulfonyl)pyrrolidin-3-yl)oxy)ethoxy)ethyl)ureido)buty)urea] | – | – | – | – | C (>70%) | < 100 | C (>70%) | 100 to 1000 | –
